Test results from US20120083471A1, “Novel Compounds, Pharmaceutical Compositions Containing Same, Methods of Use for Same, and Methods for Preparing Same” (priority 2008, published 2012).
Entries after “also recorded” stand apart in the source; their conditions may differ. Where two headings read alike, the source gives them in different places.

Columns and labels:
3T3-L1 adipocytes = assay: Acylglyceride synthesis in 3T3-L1 adipocytes ([14C]palmitate labelling, TLC); type: cell-based, mouse; conditions: for IC50: Mus musculus, 3T3-L1 adipocytes 7 days post-differentiation, 18 h treatment, linear regression, n=3
Description: 3T3-L1 Adipocytes 3T3-L1 cells were differentiated into adipocytes as described 34. Seven days post-differentiation, cells were treated with FSG67 at indicated concentrations for 18 h, then labeled with [14C]palmitate for 2 h. Following Folch extraction, lipids were subjected to polar and non-polar thin-layer chromatography 35. Triglyceride and phosphatidylcholine fractions were quantified with phosphorimaging (Storm 840, Molecular Dynamics, Piscataway, N.J.).
Mouse 3T3-L1 adipocytes were used to test the effect FSG67 on acylglyceride synthesis in vitro. […] As phosphatidylcholine was the predominant phospholipid synthesized in the 3T3-L1 adipocytes, it is representative of overall cellular phospholipid synthesis. […] Note the decrease in lipid droplets in the FSG67 treated cells compared to vehicle treated controls. Thus, FSG67 inhibits cellular acylglyceride synthesis with an IC50 similar to its inhibition of GPAT activity in mitochondrial preparations.

mtGPAT1 = target: T1, mtGPAT1 (Mus musculus, UniProt Q61586); assay: In vitro mtGPAT inhibition: acylation of 14C-glycerol 3-phosphate with palmitoyl-CoA, scintillation counting; type: biochemical; conditions: Table 2, sulfonamides 15a-i and 17a-f; triplicate; read-out: IC50 (μM) ± SD, In Vitro Anti-mtGPAT1 Activity
T1 construct: from tissue; host or cells: mitochondrial preparation
T1 sequence (Q61586 1-827): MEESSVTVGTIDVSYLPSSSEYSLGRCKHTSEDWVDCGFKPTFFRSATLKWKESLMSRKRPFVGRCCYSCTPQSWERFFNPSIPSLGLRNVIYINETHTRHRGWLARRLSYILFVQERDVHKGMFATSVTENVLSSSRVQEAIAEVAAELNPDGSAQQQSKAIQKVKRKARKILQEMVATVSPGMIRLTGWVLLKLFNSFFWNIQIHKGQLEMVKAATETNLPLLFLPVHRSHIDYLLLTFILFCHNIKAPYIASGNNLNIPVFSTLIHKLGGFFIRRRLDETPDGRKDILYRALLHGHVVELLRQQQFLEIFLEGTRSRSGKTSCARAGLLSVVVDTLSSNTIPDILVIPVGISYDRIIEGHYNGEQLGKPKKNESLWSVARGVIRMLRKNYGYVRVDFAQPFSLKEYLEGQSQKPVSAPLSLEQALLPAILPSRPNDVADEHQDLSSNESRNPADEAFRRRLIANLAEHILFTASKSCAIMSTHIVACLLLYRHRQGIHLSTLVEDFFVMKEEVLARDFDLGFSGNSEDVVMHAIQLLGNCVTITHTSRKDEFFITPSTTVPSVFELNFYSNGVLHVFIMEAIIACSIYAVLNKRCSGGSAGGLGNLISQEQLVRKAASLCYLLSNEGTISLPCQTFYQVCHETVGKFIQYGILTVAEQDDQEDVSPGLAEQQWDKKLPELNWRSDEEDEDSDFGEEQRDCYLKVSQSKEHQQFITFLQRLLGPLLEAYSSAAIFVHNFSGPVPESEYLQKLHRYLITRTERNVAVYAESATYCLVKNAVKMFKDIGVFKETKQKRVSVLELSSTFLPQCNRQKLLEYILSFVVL
Description: The compounds produced as described above were evaluated for their ability to inhibit the acylation of glycerol-3-phosphate in vitro. The acylation reaction between ^14C-labelled glycerol-3-phosphate and palmitoyl-CoA, initiated by adding mtGPAT, was measured in the presence of varying concentrations of the inhibitor by scintillation counting as described in more detail below.
A mitochondrial preparation of glycerol 3-phosphate acyltransferase was added to the incubation mixture containing ^14C-labeled glycerol 3-phosphate, palmitoyl-CoA, and varying inhibitor concentrations to initiate the reaction. After ten min, the reaction was terminated by adding chloroform, methanol, and 1% perchloric acid. Five minutes later, more chloroform and perchloric acid were added, and the upper aqueous layer was removed. After washing three times with 1% perchloric acid, the organic layer was evaporated under nitrogen, and the amount of ^14C present was counted to determine the extent of reaction inhibition. Data points were recorded in triplicate, and IC50 values were calculated based on the amount of test inhibitor necessary to produce 50% of mtGPAT activity observed in the absence of inhibitor but in the presence of DMSO vehicle control.

lean mice = assay: Intracerebroventricular FSG67 treatment of lean mice; type: in vivo, mouse; conditions: for weight lost: within 24 h
Description: Chronic lateral cerebroventricle cannulas. For experiments requiring intracerebroventricular (i.c.v.) administration of compounds, mice were outfitted unilaterally with chronic indwelling cannulas aimed at the lateral cerebroventricle. After mice recovered from surgeries for one week, cannula placements were assessed by measuring food intake in response to i.c.v. neuropeptide Y (NPY, American Peptide Co., CA). Mice were given NPY (0.25 ηmol/2 μl injection) or sterile 0.9% saline vehicle via the i.c.v. cannula, and allowed 1-h access to grain-based pellets during the light phase. Mice that ate at least 0.5 g of food after NPY were used in the experiments. Eleven mice were given a 2 μL injection of RPMI-1640 without glucose (Cambrex, Md.) for vehicle control. Three days later, six mice received a 100 nmole dose of FSG67 in the vehicle while 5 mice received 320 nmoles of compound.
We administered FSG67 icy to determine whether GPAT inhibition acts centrally to reduce food intake. Lean mice were treated with FSG67 icy at doses 100 and 320 nmoles (approximately […] less than the 5 mg/kg single day systemic dose). Within 24 h, mice treated with 100 nmoles lost 0.75±0.4 g (p=0.016) while the 320 nmole group lost 1.8±0.3 g (p=0.0003); vehicle controls gained 0.43±0.1 g and 0.33±0.1 g respectively (FIG. 15a). The animal weight was regained within 48 h without a significant rebound (data not shown). […] Within 48 h, the animals began eating normally with slight hyperphagia in the 320 nmole group on days 3 and 4 (data not shown).

`CCCCCCCCCS(=O)(=O)Nc1ccccc1C(=O)O` [Compound 15g, 2-(Nonylsulfonamido)benzoic acid] was tested, and the “triglyceride / lipid droplet accumulation” value (3T3-L1 adipocytes; 3T3-L1 adipocytes, 48 h following treatment, photomicrographs, listed as FSG67) was “dose-dependent reduction; also recorded: reduction in lipid droplet accumulation”, the IC50 (3T3-L1 adipocytes; read-out: IC50 for cellular triglyceride synthesis) was 33.9 µM and the IC50 (3T3-L1 adipocytes; read-out: IC50 for phosphatidylcholine synthesis) was 36.3 µM. It also gave an IC50 (mtGPAT1) of 8.1 µM, a weight lost (lean mice; 100 nmoles icv) of 0.75 ± 0.4 g and a chow intake (lean mice; 320 nmole icv) of 2.5 ± 0.3 g. For the same molecule, the weight lost (lean mice; 320 nmole icv) was 1.8 ± 0.3 g, the “mouse weight one day following treatment” value (lean mice; 100 and 320 nmole icv) was “significantly reduced” and the “significant reduction in food intake” value (lean mice; 100 vs 320 nmole icv, listed as FSG67) was “only occurred in the 320 nmole treatment group”. For the same molecule, the “time to regain animal weight” value (lean mice; icv, without significant rebound) was at most 48 h.
